Patent US20250081967A1, “PESTICIDALLY ACTIVE HETEROCYCLIC DERIVATIVES WITH SULFOXIMINE CONTAINING SUBSTITUENTS” (SYNGENTA CROP PROTECTION AG, priority 2021, published 2025)

Legend:
Assay type in all cases: in vivo
Myzus persicae [1] = assay: Activity against Myzus persicae (green peach aphid), feeding/contact activity, sunflower leaf discs; conditions: Myzus persicae, foliar; for mortality at 200 ppm: 144 h, application rate 200 ppm, feeding/contact, 6 days after infestation
Procedure: Example B4: Activity Against Myzus persicae (Green Peach Aphid) Feeding/Contact Activity
Sunflower leaf discs were placed on agar in a 24-well microtiter plate and sprayed with aqueous test solutions prepared from 10′000 ppm DMSO stock solutions. After drying, the leaf discs were infested with an aphid population of mixed ages. The samples were assessed for mortality 6 days after infestation.

Plutella xylostella = assay: Activity against Plutella xylostella (diamond back moth), artificial diet, eggs; conditions: 192 h, application rate 200 ppm, 8 days after infestation, read-out: effect in at least one of the two categories (mortality or growth inhibition)
Procedure: Example B9: Activity Against Plutella xylostella (Diamond Back Moth)
24-well microtiter plates with artificial diet were treated with aqueous test solutions prepared from 10′000 ppm DMSO stock solutions by pipetting. After drying, Plutella eggs were pipetted through a plastic stencil onto a gel blotting paper and the plate was closed with it. The samples were assessed for mortality and growth inhibition in comparison to untreated samples 8 days after infestation.

Bemisia tabaci = assay: Activity against Bemisia tabaci (cotton white fly), cotton leaf discs; conditions: for mortality at 200 ppm / mortality at 12.5 ppm: foliar; for mortality at 200 ppm: 144 h, application rate 200 ppm, adult white flies, 6 days after incubation
Procedure: Example B6: Activity Against Bemisia tabaci (Cotton White Fly)
Cotton leaf discs were placed on agar in 24-well microtiter plates and sprayed with aqueous test solutions prepared from 10′000 ppm DMSO stock solutions. After drying the leaf discs were infested with adult white flies. The samples were checked for mortality 6 days after incubation.

Myzus persicae [2] = assay: Activity against Myzus persicae (green peach aphid), systemic activity, pea seedlings; conditions: for mortality at 24 ppm: Myzus persicae
Procedure: Example B5: Activity Against Myzus persicae (Green Peach Aphid) Systemic Activity
Roots of pea seedlings infested with an aphid population of mixed ages were placed directly in the aqueous test solutions prepared from 10′000 DMSO stock solutions. The samples were assessed for mortality 6 days after placing seedlings in test solutions.

Diabrotica balteata = assay: Activity against Diabrotica balteata (corn root worm), maize sprouts; conditions: for percent effect (mortality or growth inhibition) at 200 ppm: 96 h, application rate 200 ppm, L2 larvae, 4 days after infestation, read-out: effect in at least one of the two categories (mortality or growth inhibition); for mortality at 50 ppm / Mortality (%): concentration 50 ppm
Procedure: Example B3: Activity Against Diabrotica Balteata (Corn Root Worm)
Maize sprouts placed onto an agar layer in 24-well microtiter plates were treated with aqueous test solutions prepared from 10′000 ppm DMSO stock solutions by spraying. After drying, the plates were infested with L2 larvae (6 to 10 per well). The samples were assessed for mortality and growth inhibition in comparison to untreated samples 4 days after infestation.

Spodoptera littoralis = assay: Activity against Spodoptera littoralis (Egyptian cotton leaf worm), cotton leaf discs; conditions: foliar, 72 h, application rate 200 ppm, L1 larvae, 3 days after infestation, read-out: control (mortality, anti-feeding effect or growth inhibition)
Procedure: Example B1: Activity Against Spodoptera littoralis (Egyptian Cotton Leaf Worm)
Cotton leaf discs were placed onto agar in 24-well microtiter plates and sprayed with aqueous test solutions prepared from 10′000 ppm DMSO stock solutions. After drying the leaf discs were infested with five L1 larvae. The samples were assessed for mortality, anti-feeding effect, and growth inhibition in comparison to untreated samples 3 days after infestation. Control of Spodoptera littoralis by a test sample is given when at least one of the categories mortality, anti-feedant effect, and growth inhibition is higher than the untreated sample.

Euschistus heros = assay: Activity against Euschistus heros (neotropical brown stink bug), soybean leaf; conditions: 120 h, application rate 200 ppm, N-2 nymphs, 5 days after infestation, read-out: effect in at least one of the two categories (mortality or growth inhibition)
Procedure: Example B7: Activity Against Euschistus heros (Neotropical Brown Stink Bug)
Soybean leaf on agar in 24-well microtiter plates were sprayed with aqueous test solutions prepared from 10′000 ppm DMSO stock solutions. After drying the leaf were infested with N-2 nymphs. The samples were assessed for mortality and growth inhibition in comparison to untreated samples 5 days after infestation.

[3] = 144 h, test rate 24 ppm, systemic, 6 days after placing seedlings in test solutions
[4] = Myzus persicae (systemic), concentration 24 ppm

SMILES: CCS(=N)(=O)c1cc(C2(C#N)CC2)cnc1-c1nc2cc(C(F)(F)F)cnc2n1C (single isomer, unassigned) [Compound P16-A, 1-[5-(ethylsulfonimidoyl)-6-[3-methyl-6-(trifluoromethyl)imidazo[4,5-b]pyridin-2-yl]-3-pyridyl]cyclopropanecarbonitrile]
- mortality at 200 ppm (Myzus persicae [1]): ≥ 80%
- mortality at 3.125 ppm (Myzus persicae [1]; Myzus persicae (feeding/contact), concentration 3.125 ppm): 100%
- percent effect (mortality or growth inhibition) at 200 ppm (Plutella xylostella): ≥ 80%
- mortality at 200 ppm (Bemisia tabaci): ≥ 80%
- mortality at 12.5 ppm (Bemisia tabaci; concentration 12.5 ppm): 100%
- mortality at 24 ppm (Myzus persicae [2]; [3]): ≥ 80%
- percent effect (mortality or growth inhibition) at 200 ppm (Diabrotica balteata): ≥ 80%

SMILES: CCS(=N)(=O)c1cc(OC(C)(C)C#N)cnc1-c1nc2cc(C(F)(F)F)nnc2n1C (single isomer, unassigned) [Compound P15-A, 2-[[5-(ethylsulfonimidoyl)-6-[7-methyl-3-(trifluoromethyl)imidazo[4,5-c]pyridazin-6-yl]-3-pyridyl]oxy]-2-methyl-propanenitrile]
- mortality at 200 ppm (Myzus persicae [1]): ≥ 80%
- percent control (mortality, anti-feedant effect or growth inhibition) at 200 ppm (Spodoptera littoralis): ≥ 80%
- percent effect (mortality or growth inhibition) at 200 ppm (Plutella xylostella): ≥ 80%
- mortality at 200 ppm (Bemisia tabaci): ≥ 80%
- mortality at 24 ppm (Myzus persicae [2]; [3]): ≥ 80%
- percent effect (mortality or growth inhibition) at 200 ppm (Diabrotica balteata): ≥ 80%
- mortality at 12.5 ppm (Diabrotica balteata; concentration 12.5 ppm): 80%

SMILES: CC[S@@](=N)(=O)c1cc(OC(C)(C)C#N)cnc1-c1nc2cc(C(F)(F)F)cnc2n1C [Compound P9-A, (R)-2-[[5-(ethylsulfonimidoyl)-6-[3-methyl-6-(trifluoromethyl)imidazo[4,5-b]pyridin-2-yl]-3-pyridyl]oxy]-2-methyl-propanenitrile]
- mortality at 200 ppm (Myzus persicae [1]): ≥ 80%
- percent control (mortality, anti-feedant effect or growth inhibition) at 200 ppm (Spodoptera littoralis): ≥ 80%
- percent effect (mortality or growth inhibition) at 200 ppm (Plutella xylostella): ≥ 80%
- mortality at 200 ppm (Bemisia tabaci): ≥ 80%
- mortality at 24 ppm (Myzus persicae [2]; [3]): ≥ 80%
- mortality at 24 ppm (Myzus persicae [2]; [4]): 100%
- percent effect (mortality or growth inhibition) at 200 ppm (Diabrotica balteata): ≥ 80%
- mortality at 50 ppm (Diabrotica balteata): 80%

SMILES: CC[S@](=N)(=O)c1cc(OC(C)(C)C#N)cnc1-c1nc2cc(C(F)(F)F)cnc2n1C [Compound P9-B, (S)-2-[[5-(ethylsulfonimidoyl)-6-[3-methyl-6-(trifluoromethyl)imidazo[4,5-b]pyridin-2-yl]-3-pyridyl]oxy]-2-methyl-propanenitrile]
- mortality at 200 ppm (Myzus persicae [1]): ≥ 80%
- percent control (mortality, anti-feedant effect or growth inhibition) at 200 ppm (Spodoptera littoralis): ≥ 80%
- percent effect (mortality or growth inhibition) at 200 ppm (Plutella xylostella): ≥ 80%
- mortality at 200 ppm (Bemisia tabaci): ≥ 80%
- mortality at 24 ppm (Myzus persicae [2]; [3]): ≥ 80%
- mortality at 24 ppm (Myzus persicae [2]; [4]): 100%
- percent effect (mortality or growth inhibition) at 200 ppm (Diabrotica balteata): ≥ 80%
- mortality at 50 ppm (Diabrotica balteata): 100%

SMILES: CCS(=N)(=O)c1cc(C2(C#N)CC2)cnc1-c1nc2cc(C(F)(F)F)nnc2n1C (racemic) [Compound P2, 1-[5-(ethylsulfonimidoyl)-6-[7-methyl-3-(trifluoromethyl)imidazo[4,5-c]pyridazin-6-yl]-3-pyridyl]cyclopropanecarbonitrile]
- mortality at 200 ppm (Myzus persicae [1]): ≥ 80%
- mortality at 200 ppm (Bemisia tabaci): ≥ 80%
- mortality at 24 ppm (Myzus persicae [2]; [3]): ≥ 80%
- percent effect (mortality or growth inhibition) at 200 ppm (Euschistus heros): ≥ 80%
- percent effect (mortality or growth inhibition) at 200 ppm (Diabrotica balteata): ≥ 80%

SMILES: CCS(=N)(=O)c1cc(C2(C#N)CC2)ccc1-c1nc2cc(C(F)(F)F)ncc2n1C (single isomer, unassigned) [Compound P18-B, 1-[3-(ethylsulfonimidoyl)-4-[3-methyl-6-(trifluoromethyl)imidazo[4,5-c]pyridin-2-yl]phenyl]cyclopropanecarbonitrile]
- mortality at 12.5 ppm (Bemisia tabaci; concentration 12.5 ppm): 80%
- percent effect (mortality or growth inhibition) at 200 ppm (Euschistus heros): ≥ 80%
- mortality at 50 ppm (Diabrotica balteata): 100%

SMILES: CCS(=N)(=O)c1cc(C2(C#N)CC2)cnc1-c1nc2cc(C(F)(F)F)ncc2n1C (single isomer, unassigned) [Compound P10-A, 1-[5-(ethylsulfonimidoyl)-6-[3-methyl-6-(trifluoromethyl)imidazo[4,5-c]pyridin-2-yl]-3-pyridyl]cyclopropanecarbonitrile]
- mortality at 200 ppm (Myzus persicae [1]): ≥ 80%
- mortality at 0.781 ppm (Myzus persicae [1]; Myzus persicae (feeding/contact), concentration 0.781 ppm): 80%
- percent effect (mortality or growth inhibition) at 200 ppm (Plutella xylostella): ≥ 80%
- mortality at 200 ppm (Bemisia tabaci): ≥ 80%
- mortality at 12.5 ppm (Bemisia tabaci; concentration 12.5 ppm): 80%
- mortality at 24 ppm (Myzus persicae [2]; [3]): ≥ 80%
- percent effect (mortality or growth inhibition) at 200 ppm (Diabrotica balteata): ≥ 80%

SMILES: CCS(=N)(=O)c1cc(C2(C#N)CC2)ccc1-c1nc2cc(C(F)(F)F)ncc2n1C (single isomer, unassigned) [Compound P18-A, 1-[3-(ethylsulfonimidoyl)-4-[3-methyl-6-(trifluoromethyl)imidazo[4,5-c]pyridin-2-yl]phenyl]cyclopropanecarbonitrile]
- mortality at 200 ppm (Myzus persicae [1]): ≥ 80%
- percent effect (mortality or growth inhibition) at 200 ppm (Plutella xylostella): ≥ 80%
- Mortality (%) (Bemisia tabaci; concentration 12.5 ppm): 100%
- mortality at 200 ppm (Bemisia tabaci): ≥ 80%
- mortality at 24 ppm (Myzus persicae [2]; [3]): ≥ 80%
- percent effect (mortality or growth inhibition) at 200 ppm (Diabrotica balteata): ≥ 80%
- Mortality (%) (Diabrotica balteata): 100%

SMILES: CCS(=N)(=O)c1cc(OC(C)(C)C#N)cnc1-c1nc2cc(C(F)(F)F)ncc2n1C (single isomer, unassigned) [Compound P13-A, 2-[[5-(ethylsulfonimidoyl)-6-[3-methyl-6-(trifluoromethyl)imidazo[4,5-c]pyridin-2-yl]-3-pyridyl]oxy]-2-methyl-propanenitrile]
- mortality at 200 ppm (Myzus persicae [1]): ≥ 80%
- mortality at 12.5 ppm (Myzus persicae [1]; Myzus persicae (feeding/contact), concentration 12.5 ppm): 80%
- percent effect (mortality or growth inhibition) at 200 ppm (Plutella xylostella): ≥ 80%
- mortality at 200 ppm (Bemisia tabaci): ≥ 80%
- mortality at 24 ppm (Myzus persicae [2]; [3]): ≥ 80%
- percent effect (mortality or growth inhibition) at 200 ppm (Diabrotica balteata): ≥ 80%
- mortality at 50 ppm (Diabrotica balteata): 80%

SMILES: CCS(=N)(=O)c1cc(C2(C#N)CC2)ccc1-c1nc2cc(C(F)(F)F)cnc2n1C (single isomer, unassigned) [Compound P6-B, 1-[3-(ethylsulfonimidoyl)-4-[3-methyl-6-(trifluoromethyl)imidazo[4,5-b]pyridin-2-yl]phenyl]cyclopropanecarbonitrile]
- percent control (mortality, anti-feedant effect or growth inhibition) at 200 ppm (Spodoptera littoralis): ≥ 80%
- percent effect (mortality or growth inhibition) at 200 ppm (Plutella xylostella): ≥ 80%
- Mortality (%) (Myzus persicae [2]; Myzus persicae (systemic), concentration 6 ppm): 100%
- Mortality (%) (Diabrotica balteata): 80%

SMILES: CCS(=N)(=O)c1cc(C2(C#N)CC2)ccc1-c1nc2cc(C(F)(F)F)ncc2n1C (racemic) [Compound P18, 1-[3-(ethylsulfonimidoyl)-4-[3-methyl-6-(trifluoromethyl)imidazo[4,5-c]pyridin-2-yl]phenyl]cyclopropanecarbonitrile]
- mortality at 200 ppm (Myzus persicae [1]): ≥ 80%
- mortality at 200 ppm (Bemisia tabaci): ≥ 80%
- mortality at 24 ppm (Myzus persicae [2]; [3]): ≥ 80%
- percent effect (mortality or growth inhibition) at 200 ppm (Euschistus heros): ≥ 80%
- percent effect (mortality or growth inhibition) at 200 ppm (Diabrotica balteata): ≥ 80%

SMILES: CCS(=N)(=O)c1cc(OC(C)(C)C#N)c(C)nc1-c1nc2cc(C(F)(F)F)ncc2n1C (single isomer, unassigned) [Compound P17-A, 2-[[5-(ethylsulfonimidoyl)-2-methyl-6-[3-methyl-6-(trifluoromethyl)imidazo[4,5-c]pyridin-2-yl]-3-pyridyl]oxy]-2-methyl-propanenitrile]
- mortality at 200 ppm (Myzus persicae [1]): ≥ 80%
- percent effect (mortality or growth inhibition) at 200 ppm (Plutella xylostella): ≥ 80%
- mortality at 200 ppm (Bemisia tabaci): ≥ 80%
- mortality at 24 ppm (Myzus persicae [2]; [3]): ≥ 80%
- percent effect (mortality or growth inhibition) at 200 ppm (Diabrotica balteata): ≥ 80%

SMILES: CCS(=N)(=O)c1cc(C(C)(C)C#N)cnc1-c1nc2cc(C(F)(F)F)cnc2n1C (single isomer, unassigned) [Compound P12-A, 2-[5-(ethylsulfonimidoyl)-6-[3-methyl-6-(trifluoromethyl)imidazo[4,5-b]pyridin-2-yl]-3-pyridyl]-2-methyl-propanenitrile]
- mortality at 200 ppm (Myzus persicae [1]): ≥ 80%
- percent effect (mortality or growth inhibition) at 200 ppm (Plutella xylostella): ≥ 80%
- mortality at 200 ppm (Bemisia tabaci): ≥ 80%
- mortality at 24 ppm (Myzus persicae [2]; [3]): ≥ 80%
- percent effect (mortality or growth inhibition) at 200 ppm (Diabrotica balteata): ≥ 80%
